Like-named read-outs stand apart in the source and are kept apart here.
Tests used:
AGS = test: Cell proliferation experiment (CellTiter-Glo); type: cell-based; conditions: read-out: IC50(nM) AGS
KRAS G12D [1] = target: T1, KRAS G12D (Homo sapiens, UniProt P01116, G12D); test: cell-based; conditions: AGS
KRAS G12D [2] = target: T1, KRAS G12D
SW620 = test: Cell proliferation experiment (CellTiter-Glo); type: cell-based; conditions: read-out: IC50(nM) SW620
[3] = SW620, KRAS mutation type G12V, 96 h incubation
[4] = AGS, KRAS mutation type G12D, 96 h incubation

Row | Compound | IC50 (AGS; Homo sapiens, AGS, 96 h) [nM] | Dmax (KRAS G12D [1]) [%] | DC50 (KRAS G12D [2]) [µM] | IC50 (SW620) [nM] | IC50 (AGS) [nM] | Dmax (%) (KRAS G12D [2]) | IC50 (SW620; [3]) [nM] | IC50 (AGS; [4]) [nM]
1 | CCc1c(F)ccc2cc(O)cc(-c3ncc4c(N5CCC[C@@](C)(O)C5)nc(OCC5(CN6CCN(Cc7cn([C@H](C(=O)N8C[C@H](O)C[C@H]8C(=O)N[C@@H](C)c8ccc(-c9scnc9C)cc8)C(C)C)nn7)CC6)CC5)nc4c3F)c12 [Compound 132] | 25 | 95 | 0.019 | – | – | – | – | –
2 | CCc1c(F)ccc2cc(O)cc(-c3ncc4c(N5CCC[C@@](C)(O)C5)nc(OCC5(CN6CCC7(CC6)CCN(c6cc([C@H](C(=O)N8C[C@H](O)C[C@H]8C(=O)N[C@@H](C)c8ccc(-c9scnc9C)cc8)C(C)C)on6)CC7)CC5)nc4c3F)c12 [Compound 155, (2S,4R)-1-((R)-2-(3-(9-((1-((7-(8-ethyl-7-fluoro-3-hydroxynaphthalen-1-yl)-8-fluoro-4-((R)-3-hydroxy-3-methylpiperidin-1-yl)pyrido[4,3-d]pyrimidin-2-yl)oxy)methyl)cyclopropyl)methyl)-3,9-diazaspiro[5.5]nonan-3-yl)isoxazol-5-yl)-3-methylbutanoyl)-4-hydroxy-N-((S)-1-(4-(4-(4-methylthiazol-5-yl)phenyl)ethyl)pyrrolidine-2-carboxamide] | 23 | 95 | 0.0087 | – | – | – | – | –
3 | CCc1c(F)ccc2cc(O)cc(-c3ncc4c(N5CCC[C@@](C)(O)C5)nc(OCC5(CN6CCN(c7cc([C@H](C(=O)N8C[C@H](O)C[C@H]8C(=O)N[C@@H](C)c8ccc(-c9scnc9C)cc8)C(C)C)on7)CC6)CC5)nc4c3F)c12 [Compound 112] | 57 | 95 | 0.005 | – | – | – | – | –
4 | CCc1c(F)ccc2cc(O)cc(-c3ncc4c(N5CCC[C@@](C)(O)C5)nc(OCCN5CCC(CCOc6cc([C@H](C(=O)N7C[C@H](O)C[C@H]7C(=O)N[C@@H](C)c7ccc(-c8scnc8C)cc7)C(C)C)on6)CC5)nc4c3F)c12 [Compound 79] | 44 | 95 | 0.044 | – | – | – | – | –
5 | CCc1c(F)ccc2cc(O)cc(-c3ncc4c(N5CCC[C@@](C)(O)C5)nc(OC[C@]56CCCN5[C@@H](COc5ccc(-c7cn([C@H](C(=O)N8C[C@H](O)C[C@H]8C(=O)N[C@@H](C)c8ccc(-c9scnc9C)cc8)C(C)C)nn7)cn5)CC6)nc4c3F)c12 [Compound 157] | 19 | 95 | 0.0077 | – | – | – | – | –
6 | C=C1CN2[C@H](COc3cc(-c4cn([C@H](C(=O)N5C[C@H](O)C[C@H]5C(=O)N[C@@H](C)c5ccc(-c6scnc6C)cc5)C(C)C)nn4)ccn3)CC[C@@]2(COc2nc(N3CCC[C@@](C)(O)C3)c3cnc(-c4cc(O)cc5ccc(F)c(CC)c45)c(F)c3n2)C1 [Compound 121] | 40 | 95 | 0.03 | – | – | – | – | –
7 | CCc1c(F)ccc2cc(O)cc(-c3ncc4c(N5CCC[C@@](C)(O)C5)nc(OCC5(CN6CCC7(CC6)CC(Oc6cc([C@H](C(=O)N8C[C@H](O)C[C@H]8C(=O)N[C@@H](C)c8ccc(-c9scnc9C)cc8)C(C)C)on6)C7)CC5)nc4c3F)c12 [Compound 150] | 11 | 95 | 0.014 | – | – | – | – | –
8 | CCc1c(F)ccc2cc(O)cc(-c3ncc4c(N5CCC[C@@](C)(O)C5)nc(OCC5(CN6CCC(N(C)c7ccc(-c8cn([C@H](C(=O)N9C[C@H](O)C[C@H]9C(=O)N[C@@H](C)c9ccc(-c%10scnc%10C)cc9)C(C)C)nn8)cn7)CC6)CC5)nc4c3F)c12 [Compound 154] | 13 | 95 | 0.0055 | – | – | – | – | –
9 | CCc1c(F)ccc2cc(O)cc(-c3ncc4c(N5CCC[C@@](C)(O)C5)nc(OC[C@]56CCCN5[C@@H](COc5ncc(-c7cn([C@H](C(=O)N8C[C@H](O)C[C@H]8C(=O)N[C@@H](C)c8ccc(-c9scnc9C)cc8)C(C)C)nn7)cn5)CC6)nc4c3F)c12 [Compound 158, (2S,4R)-1-((S)-2-(4-(2-(((3R,7aR)-7a-(((7-(8-ethyl-7-fluoro-3-hydroxynaphthalen-1-yl)-8-fluoro-4-((R)-3-hydroxy-3-methylpiperidin-1-yl)pyrido[4,3-d]pyrimidin-2-yl)oxy)methyl)cyclopropyl)hexahydro-1H-pyrrolizin-3-yl)methoxy)pyrimidin-5-yl)-1H-1,2,3-triazol-1-yl)-3-methylbutanoyl)-4-hydroxy-N-(((S)-1-(4-(4-methylthiazol-5-yl)phenyl)ethyl)pyrrolidine-2-carboxamide] | 18 | 95 | 0.0041 | – | – | – | – | –
10 | CCc1c(F)ccc2cc(O)cc(-c3ncc4c(N5CCC[C@@](C)(O)C5)nc(OCC5(CN6CCC(Nc7ccc(-c8cn([C@H](C(=O)N9C[C@H](O)C[C@H]9C(=O)N[C@@H](C)c9ccc(-c%10scnc%10C)cc9)C(C)C)nn8)cn7)CC6)CC5)nc4c3F)c12 [Compound 152] | 30 | 95 | 0.027 | – | – | – | – | –
11 | CCc1c(F)ccc2cc(O)cc(-c3ncc4c(N5CCC[C@@](C)(O)C5)nc(OCC5(CN6CCC(c7cn([C@H](C(=O)N8C[C@H](O)C[C@H]8C(=O)N[C@@H](C)c8ccc(-c9scnc9C)cc8)C(C)C)nn7)CC6)CC5)nc4c3F)c12 [Compound 131, (2S,4R)-1-((S)-2-(4-(1-((((7-(8-ethyl-7-fluoro-3-hydroxynaphthalen-1-yl)-8-fluoro-4-((R)-3-hydroxy-3-methylpiperidin-1-yl)pyrido[4,3-d]pyrimidin-2-yl)oxy)methyl)cyclopropyl)methyl)piperidin-4-yl)-1H-1,2,3-triazol-1-yl)-3-methylbutanoyl)-4-hydroxy-N-(((S)-1-(4-(4-methylthiazol-5-yl)phenyl)ethyl)pyrrolidine-2-carboxamide] | 34 | 95 | 0.018 | – | – | – | – | –
12 | (2S,4R)-1-((S)-2-(4-(5-((1-((1-(((7-(8-ethyl-7-fluoro-3-hydroxynaphthalen-1-yl)-8-fluoro-4-((R)-3-hydroxy-3-methylpiperidin-1-yl)pyrido[4,3-d]pyrimidin-2-yl)oxy)methyl)cyclopropyl)methyl) piperidin-4-yl)methyl)piperazin-2-yl)-1H-1,2,3-triazol-1-yl)-3-methylbutanoyl)-4-hydroxy-N-((S )-1-(4-(4-methylthiazol-5-yl)phenyl)ethyl)pyrrolidine-2-carboxamide [Compound 193] | – | – | – | 24 | 7.3 | – | – | –
13 | (7-(8-ethyl-7-fluoro-3-hydroxynaphthalen-1-yl)-8-fluoro-4-(R)-3-hydroxy-3-methylpiperidin-1-y l)pyrido[4,3-d]pyrimidin-2-yl)oxy)methyl)-6-methylenehexahydro-1H-pyrrolizin-3-yl)methyl ((3-(1-((S)-1-(2S,4R)-4-hydroxy-2-(S)-1-(4-methylthiazol-5-yl)phenyl)ethyl)carbamoyl)pyrrolidi n-1-yl)-3-methyl-1-oxobutan-2-yl)-1H-1,2,3-triazol-4-yl)bicyclo[1.1.1]pentan-1-yl)methyl)carba mate [Compound 126] | – | – | 0.023 | 246 | 32 | 95 | – | –
14 | CCc1c(F)ccc2cc(O)cc(-c3ncc4c(N5CCC[C@@](C)(O)C5)nc(OCC5(CN6CCN(C7CCN(c8cnc(-c9cn([C@H](C(=O)N%10C[C@H](O)C[C@H]%10C(=O)N[C@@H](C)c%10ccc(-c%11scnc%11C)cc%10)C(C)C)nn9)cn8)CC7)CC6)CC5)nc4c3F)c12 [Compound 197] | – | – | – | – | – | – | 32 | 6.1
15 | CCc1c(F)ccc2cc(O)cc(-c3ncc4c(N5CCC[C@@](C)(O)C5)nc(OCC5(CN6CCC(N7CCC(c8cnc(-c9cn([C@H](C(=O)N%10C[C@H](O)C[C@H]%10C(=O)N[C@@H](C)c%10ccc(-c%11scnc%11C)cc%10)C(C)C)nn9)cn8)CC7)CC6)CC5)nc4c3F)c12 [Compound 195] | – | – | – | – | – | – | 18 | 4.4

— EP4631940A1, “COMPOUND TARGETING PAN-KRAS PROTEIN DEGRADATION AGENT AND USE THEREOF” (Betta Pharmaceuticals Co., Ltd., priority 2022, dated 2024)
